Our source for the IC50 values is patent publication US20250215039A1, “NUCLEOSIDES FOR TREATING CANCER” (PRIMEFOUR THERAPEUTICS, INC., priority 2022, published 2025).

In the assay the test system is cancer cell lines. Nature of the assay: Cancer cell proliferation activity (CellTiterGlo, 72 h). It counts as cell-based. The settings on record: 72 h, 72 h, read-out: IC50 cell proliferation. On the procedure: Dose response relationships on cell proliferation was assessed for representative Compounds of the Disclosure on cancer cell lines. Briefly, compound treatment of cells started one day after seeding with a final DMSO concentration of 0.1%, and was performed by nanodrop-dispensing using a Tecan Dispenser. 0.1% DMSO (solvent) and Staurosporine (10 μM) served as high control (100% viability) and low control (0% viability), respectively.
Cells were cultured in the appropriate media. For the assays, cells were seeded in white cell culture-treated flat and clear bottom multiwell plates and incubated at 37° C. overnight before compound was added. After incubation for 72 h at 37° C. at 5% or 10% CO2 dependent on the medium, cell plates were equilibrated to room temperature for one hour, CellTiterGlo reagent (Promega) was added and luminescence was measured approximately an hour later using a luminometer.
Raw data were converted into percent cell viability relative to the high and low control, which were set to 100% and 0%, respectively.
The IC50 values are summarized in Tables 9A-1, Table 10A, and Table 10B.
A general note: In ATP-based viability assays light output follows the ATP content of the culture.

Setting [1] is: Homo sapiens, A204, 72 h, A204 (muscle).
Where [2] appears, read: Homo sapiens, ACHN, ACHN (kidney).
[3] abbreviates: Homo sapiens, ASPC1, 72 h, ASPC1 (pancreas).
Where [4] appears, read: Homo sapiens, BXPC-3, 72 h, BXPC3 (pancreas).
The mark [5] stands for this setting: Homo sapiens, Caco-2, 72 h, CACO2 (colon).
The mark [6] stands for this setting: Homo sapiens, Granta-519, 72 h, GRANTA-519 (hematological).
The mark [7] stands for this setting: Homo sapiens, Kasumi 1, 72 h, KASUMI-1 (hematological).
[8] abbreviates: Homo sapiens, LoVo, LOVO (colon).
The mark [9] stands for this setting: Homo sapiens, MDA-MB-231, 72 h, MDAMB231 (breast).
Setting [10] is: Homo sapiens, MDA-MB-436, 72 h, MDAMB436 (breast).
Setting [11] is: Homo sapiens, MINO, MINO (hematological).
Setting [12] is: Homo sapiens, SK-BR-3, 72 h, SKBR3 (breast).

Like-named read-outs stand apart in the source and are kept apart here.

Take `Nc1nc(F)nc2c1ncn2[C@H]1C[C@H](O)[C@](CO)(C2CC2)O1` [Cpd. No. 5, (2R,3S,5R)-5-(6-amino-2-fluoro-9H-purin-9-yl)-2-cyclopropyl-2-(hydroxymethyl)tetrahydrofuran-3-ol]: the IC50 was 4930 nM (5637 (bladder)); 2320 nM under setting [1]; 3670 nM under setting [2]; 2620 nM under setting [3]; more than 50000 nM under setting [4]; 7850 nM under setting [5]. Besides, the IC50 is, setting by setting: under setting [6], more than 50000 nM; under setting [7], 1400 nM; under setting [8], 2750 nM; under setting [9], more than 50000 nM; under setting [10], 2900 nM; under setting [11], 1750 nM. Moreover, the IC50 runs as follows: under setting [12], 1060 nM; (NCI-H358M, NCIH358M (lung)) 1980 nM.
As to `N#C[C@]1(CO)O[C@@H](n2cc(F)c(=O)[nH]c2=O)C[C@@H]1O` [Cpd. No. 107, (2R,3S,5R)-5-(5-fluoro-2,4-dioxo-3,4-dihydropyrimidin-1(2H)-yl)-3-hydroxy-2-(hydroxymethyl)tetrahydrofuran-2-carbonitrile], the IC50 (5637 (bladder)) worked out at 2220 nM; the IC50 under setting [1] is more than 50000 nM; the IC50 under setting [2] is 3840 nM; the IC50 under setting [3] came to 1580 nM; the IC50 under setting [4] stood at 1000 nM; the IC50 under setting [5] is more than 50000 nM. The IC50 by setting is: under setting [6], 1860 nM; under setting [7], more than 50000 nM; under setting [8], more than 50000 nM; under setting [9], more than 50000 nM; under setting [10], more than 50000 nM; under setting [11], 2340 nM. The IC50 was 970 nM under setting [12] and more than 50000 nM (NCI-H358M, NCIH358M (lung)).
Regarding `C#C[C@]1(CO)O[C@@H](n2cc(Cl)c(N)nc2=O)C[C@@H]1O` [Cpd. No. 109, 4-amino-5-chloro-1-((2R,4S,5R)-5-ethynyl-4-hydroxy-5-(hydroxymethyl)tetrahydrofuran-2-yl)pyrimidin-2(1H)-one], the IC50 is 10 nM (5637 (bladder)); 4020 nM under setting [1]; 1260 nM under setting [2]; 2930 nM under setting [3]; 500 nM under setting [4]; 3280 nM under setting [5]. Moreover, the IC50 runs as follows: under setting [6], 920 nM; under setting [7], 1690 nM; under setting [8], 2540 nM; under setting [9], 400 nM; under setting [10], 3490 nM; under setting [11], 370 nM. Also, the IC50 was 980 nM under setting [12] and 10 nM (NCI-H358M, NCIH358M (lung)).
With `C[C@]1(CO)O[C@@H](n2cnc3c(O)nc(N)nc32)C[C@@H]1O` [Cpd. No. 115, 2-amino-9-((2R,4S,5R)-4-hydroxy-5-(hydroxymethyl)-5-methyltetrahydrofuran-2-yl)-9H-purin-6-ol], the IC50 (5637 (bladder)) worked out at 7010 nM; the IC50 under setting [1] amounted to 630 nM; the IC50 under setting [2] is 2810 nM; the IC50 under setting [3] was more than 50000 nM; the IC50 under setting [4] is more than 50000 nM; the IC50 under setting [5] was more than 50000 nM. Also, the IC50 under setting [6] was 2220 nM; the IC50 under setting [7] came to 2130 nM; the IC50 under setting [8] was more than 50000 nM; the IC50 under setting [9] worked out at 3400 nM; the IC50 under setting [10] worked out at 4090 nM; the IC50 under setting [11] was 1720 nM. Besides, the IC50 under setting [12] came to 3450 nM and the IC50 (NCI-H358M, NCIH358M (lung)) amounted to 1070 nM.
In the case of `Nc1nc(F)nc2c1ncn2[C@H]1C[C@H](O)[C@](CO)(CC2CC2)O1` [Cpd. No. 130, (2R,3S,5R)-5-(6-amino-2-fluoro-9H-purin-9-yl)-2-(cyclopropylmethyl)-2-(hydroxymethyl)tetrahydrofuran-3-ol], the IC50 reads like this: (5637 (bladder)) 2060 nM; under setting [1], 1710 nM; under setting [2], 3830 nM; under setting [3], 620 nM; under setting [4], 3280 nM; under setting [5], 1500 nM. Further, the IC50 under setting [6] came to 5220 nM; the IC50 under setting [7] came out at 210 nM; the IC50 under setting [8] was found to be 490 nM; the IC50 under setting [9] is more than 50000 nM; the IC50 under setting [10] stood at 530 nM; the IC50 under setting [11] came out at 300 nM. Moreover, the IC50 under setting [12] came to 120 nM and the IC50 (NCI-H358M, NCIH358M (lung)) came to 930 nM.
Regarding `CC[C@]1(CO)O[C@@H](n2cnc3c(O)nc(N)nc32)C[C@@H]1O` [Cpd. No. 223, 2-amino-9-((2R,4S,5R)-5-ethyl-4-hydroxy-5-(hydroxymethyl)tetrahydrofuran-2-yl)-9H-purin-6-ol], the IC50 (5637 (bladder)) is more than 50000 nM; the IC50 under setting [1] is 1830 nM; the IC50 under setting [2] is more than 50000 nM; the IC50 under setting [3] was more than 50000 nM; the IC50 under setting [4] was more than 50000 nM; the IC50 under setting [5] was more than 50000 nM. In addition, the IC50 runs as follows: under setting [6], 1400 nM; under setting [7], 1460 nM; under setting [8], more than 50000 nM; under setting [9], 6280 nM; under setting [10], more than 50000 nM; under setting [11], 2700 nM. For the same compound, the IC50 under setting [12] was more than 50000 nM and the IC50 (NCI-H358M, NCIH358M (lung)) was found to be 2960 nM.
`C#C[C@]1(CO)O[C@@H](n2cnc3c(=O)[nH]c(N)nc32)[C@H](F)[C@@H]1O` [compound 95, 2-amino-9-((2R,3R,4R,5R)-5-ethynyl-3-fluoro-4-hydroxy-5-(hydroxymethyl)tetrahydrofuran-2-yl)-1,9-dihydro-6H-purin-6-one]: the IC50 runs as follows: (5637 (bladder)) 3900 nM; under setting [1], 1350 nM; under setting [2], more than 50000 nM; under setting [3], 4620 nM; under setting [4], more than 50000 nM; under setting [5], more than 50000 nM. In addition, the IC50 reads like this: under setting [6], 4440 nM; under setting [7], 1630 nM; under setting [8], more than 50000 nM; under setting [9], 1690 nM; under setting [10], 3850 nM; under setting [11], 2540 nM. Also, the IC50 reads like this: under setting [12], more than 50000 nM; (NCI-H358M, NCIH358M (lung)) 1590 nM.
Consider `O=c1[nH]c(=O)n([C@H]2C[C@H](O)[C@@H](CO)O2)cc1F` [compound 185, 5-fluoro-1-((2R,4S,5R)-4-hydroxy-5-(hydroxymethyl)tetrahydrofuran-2-yl)pyrimidine-2,4(1H,3H)-dione], for which the IC50 by setting is: (5637 (bladder)) 1 nM; under setting [1], 77 nM; under setting [2], 4 nM; under setting [3], 5 nM; under setting [4], 2 nM; under setting [5], 116 nM. For the same compound, the IC50 came out at 2 nM under setting [6]; 24 nM under setting [7]; 7 nM under setting [8]; 76 nM under setting [9]; 6 nM under setting [10]; 4 nM under setting [11]. The IC50 reads like this: under setting [12], 1 nM; (NCI-H358M, NCIH358M (lung)) 12 nM.
